The text below walks through data of US12285011B2, “Insecticidal formulation for vector and pest control with increased contact efficacy” (DISCOVERY PURCHASER CORPORATION, priority 2018, dated 2025).

Structures are written as SMILES. Like-named read-outs stand apart in the source and are kept apart here.

The data set can be described thus: Water solubility at pH 7 (HPLC-MS). Type of data set: physicochemical. To be noted: thermodynamic from solid. The protocol: In another preferred embodiment of the invention the insecticidal active ingredient—matrix particles comprise one insecticidal active ingredient with the above indicated physicochemical properties. The melting points according to the invention are measured under standard conditions (1 atmosphere). Water solubility are indicated in percentage referring to the quotient of (g) gram insecticidal active ingredient/100 ml water. Water solubility is preferably measured with liquid chromatography e.g. with a HPLC-MS system (at 20° C., 1 atmosphere and pH 7, see also example 1 as a reference).
The reported water solubilities as shown in table 1 are determined as follows: Preparation of calibration standards: A 1000 ppm solution of the analyte in acetonitrile is prepared and from this at least three calibration points are obtained by dilution with acetonitrile going down to 0.01 mg/L, if needed. Sample Preparation: Two cavities of a deepwell are filled each with about 0.6 mg of homogenized sample and 500 μL of a pH 7 phosphate buffer is added. A glass pearl is added to each cavity, the deepwell is sealed and shaken for at least 24 h at 1600 rpm at 23° C. After the shaking procedure the solution is filtered. Aliquots of the filtrates are analysed via a HPLC-MS system with DAD and MS detection. The peak areas of all selected single DAD and ion traces are taken for the calculations. The calculation is done by external calibration against the areas of the standard samples (linear regression). The mean of all calculated values gives the water solubility of the active ingredient.

The mark [1] stands for this setting: aqueous buffer, pH 7 phosphate buffer, shaken at least 24 h at 23° C., technical grade active ingredient, read-out: water solubility at pH 7.

A word on the solubility: it is the dissolved amount per volume that the medium holds. With `CN(C(=O)c1cc(-c2cnn(-c3c(Cl)cc(C(F)(C(F)(F)F)C(F)(F)F)cc3Cl)c2)cnc1Cl)C1CC1` [2-chloro-N-cyclopropyl-5-{1-[2,6-dichloro-4-(1,1,1,2,3,3,3-heptafluoropropan-2-yl)phenyl]-1H-pyrazol-4-yl}-N-methylnicotinamide], the solubility under setting [1] was less than 0.01 µg/mL.

Turning to `CCN1OC[C@@H](NC(=O)c2ccc(C3=NO[C@@](c4cc(Cl)c(F)c(Cl)c4)(C(F)(F)F)C3)cc2C)C1=O` [4-[(5S)-5-(3,5-dichloro-4-fluorophenyl)-5-(trifluoromethyl)-4,5-dihydro-1,2-oxazol-3-yl]-N-[(4R)-2-ethyl-3-oxo-1,2-oxazolidin-4-yl]-2-methylbenzamide], under “23 °C, pH 7, aqueous buffer”, the solubility is less than 0.01 µg/mL.

Consider `CN(C(=O)c1ccccc1)c1cccc(C(=O)Nc2c(Br)cc(C(F)(C(F)(F)F)C(F)(F)F)cc2C(F)(F)F)c1F` [broflanilide, 3-[benzoyl(methyl)amino]-N-[2-bromo-4-(1,1,1,2,3,3,3-heptafluoropropan-2-yl)-6-(trifluoromethyl)phenyl]-2-fluorobenzamide, reference compound], for which the solubility under setting [1] is less than 0.01 µg/mL.
